Values belong to the molecule of their own block, whether it stands above or below them.
Columns and labels:
[1] = system: PDGFRα D842V mutated Gastrointestinal Stromal Tumors (GIST); assay: Phase 1 study DCC-2618-01-001: antitumor activity (RECIST 1.1) in GIST patients with PDGFRα D842V mutation; assay type: in vivo, human; conditions: GIST patient
Protocol: (§1) Preliminary antitumor activity was measured by CT scans according to RECIST 1.1 every other cycle (every 56 days). Pharmacodynamics effects were measured as a reduction in mutation allele frequency (MAF) in plasma cell-free (cf) DNA and analyzed with Guardant 360 v2.9 or v2.10 (Guardant Health, Redwood City, Calif.), a. 73-gene next generation sequencing panel.
All patients had to have progressive disease on standard of care treatment and would rapidly progress without treatment. Three patients with PDGFRα-mutated Gastrointestinal Stromal Tumors (GIST) were enrolled in the study. The PDGFRα D842V mutation was identified in each patient by tumor biopsy. Based on non-clinical data and the available pharmacokinetic data from study DCC-2618-01-001, dose levels of >50 mg BID (daily dose equivalent 100 mg) were sufficient to lead to tumor control i.e. growth arrest in these advanced sarcomas of PDGFRα D842V mutation-dependent tumors in patients suffering from GIST. Out of 3 evaluable patients, 2 were enrolled at or above target-effective dose levels (150 mg QD and 100 mg BID). […] The patient at 100 mg BID is now in Cycle 11 (>40 weeks) and continues to benefit from treatment. […] The 2 patients had 1 and 3 prior treatments with Tyrosine Kinase Inhibitors, respectively.

[2] = system: circulating glioblastoma tumor cells (PDGFRα+/GFAP+); assay: Phase 1 study: circulating glioblastoma tumor cells (PDGFRα+/GFAP+ CTC) in whole blood; assay type: in vivo, human; conditions: GBM patient, 20 mg BID
Protocol: (§2) Preliminary antitumor activity was measured by CT scans according to RANO (Revised Assessment in Neuro-Oncology) criteria every other cycle followed by after every cycle (every 56 or 84 days). Pharmacodynamic effects […] were measured as a reduction in circulating tumor cells (CTC). Whole blood was enriched for CTCs in an OncoQuick tube. The CTC layer was incubated with an adenovirus that replicates and expresses GFP in cells with high levels of telomerase (Oncolys BioPharma Inc.). Cells were then incubated with fluorescently-labeled antibodies, fixed, and stained with DAPI. Cells positive for DAPI, GFP, PDGFRα and GFAP fluorescence were counted as circulating glioblastoma tumor cells using a BioTek Cytation 5 imager. Glial fibrillary acidic protein (GFAP) is unambiguously attributed to glial cells.
The relevance of PDGFRα amplification has been assessed in pediatric and adult high-grade astrocytomas (HGA) including glioblastomas. […] Dunn et al., provide additional evidence that PDGFRα amplification is a driver genomic alteration for GBM (Dunn et al., Genes Dev. (2012) 26(8):756-84). […] The frequency dropped in cycles 13 (52 weeks) and 17 (68 weeks) to 1.11 and 0.58 CTCs/mL, respectively.

[3] = Phase 1 study: plasma pharmacokinetics, Cycle 1 Day 15, after oral Compound A; assay type: in vivo, human; conditions: patients, Cycle 1 Day 15 steady state; for Cmax: human, po, 150 mg, Compound A Cmax (mean)
Source text: Phoenix WinNonlin version 6.3 was used to analyze plasma concentration versus time data for calculation of standard noncompartmental PK parameters. All PK calculations were completed using the nominal sample collection times.

[4] = system: PDGFRα amplified glioblastoma; assay: Phase 1 study: antitumor activity (RANO) in glioblastoma patient with PDGFRα amplification; assay type: in vivo, human; conditions: GBM patient, 20 mg BID oral
Protocol: as §2
All patients had to have progressive disease on standard of care treatment and would rapidly progress without treatment. One patient with PDGFRα amplified glioblastoma (GBM; 6× amplified, 12 copies) was enrolled in the study at the 20 mg BID dose level. The patient had been treated initially with combined radio-chemotherapy followed by temozolomide alone and progressed after 3 months. The GBM patient is now in cycle 19 (>17 months on study) and continues to benefit from treatment. […] FIG. 1B provided an additional proof of the tumor reduction after cycle 9.

[5] = system: PDGFRα D842V mutation in plasma cell-free DNA; assay: Phase 1 study: PDGFRα D842V mutation allele frequency in plasma cfDNA (Guardant 360); assay type: in vivo, human; conditions: GIST patient at 100 mg BID
Protocol: as §1
To date, cfDNA follow up data for PDGFRα D842V mutation allele frequency in plasma are available for the patient at 100 mg BID only. The PDGFRα D842V mutation was not detected by cfDNA at baseline, but at Cycle 3 Day 1 (8 weeks) post-treatment a frequency of 0.59% was detected.

[6] = target: T1, recombinant D842V mutant PDGFRα (Homo sapiens, UniProt P16234, D842V); assay: Biochemical assay for PDGFRα D842V (coupled pyruvate kinase/lactate dehydrogenase); conditions: 0.5 mM ATP, 3 nM PDGFRA D842V; read-out: IC50, inhibition of recombinant D842V mutant PDGFRα enzyme activity
T1 construct: His (N); purchased Invitrogen, Carlsbad, Calif
Protocol: (§3) The reaction rate was calculated using the 2-3 h time frame.

[7] = target: T2, D842V mutant PDGFRα expressed in BaF3 cells (Homo sapiens, UniProt P16234, D842V); assay: BaF3 PDGFRα D842V Western blot, phospho-PDGFRα (Tyr754); assay type: cell-based; conditions: 4 hours, read-out: IC50, inhibition of phosphorylation of D842V mutant PDGFRα expressed in BaF3 cells
T2 construct: expressed in transfected cells; host or cells: BaF3 cells (IL-3 independent selection)
Source text: (§4) BaF3 cells were transfected with a construct encoding D842V PDGFRα and selected for IL-3 independence.
(§5) Cells were washed with PBS, then lysed. Cell lysates were separated by SDS-PAGE and transferred to PVDF. Phospho-PDGFRα (Tyr754) was detected using an antibody from Cell Signaling Technology (Beverly, Mass.), ECL Plus detection reagent (GE Healthcare, Piscataway, N.J.) and a Molecular Devices Storm 840 phosphorimager in fluorescence mode. Blots were stripped and probed for total PDGFRα using an antibody from Cell Signaling Technology (Beverly, Mass.). IC50 values were calculated using Prism software (GraphPad, San Diego, Calif.).

[8] = system: FIP1L1-PDGFRα fusion in EOL-1 cells; assay: EOL-1 cell proliferation assay (resazurin); assay type: cell-based; conditions: Homo sapiens, EOL1; 67 h + 5 h resazurin; read-out: IC50, inhibition of proliferation of FIP1L1-PDGFRα fusion in EOL-1 cells
Protocol: (§6) A serial dilution of test compound was dispensed into a 96-well black clear bottom plate (Corning, Corning, N.Y.). Ten thousand cells were added per well in 200 μL complete growth medium. […] Plates were read on a Synergy2 reader (Biotek, Winooski, Vt.) using an excitation of 540 nm and an emission of 600 nm. Data was analyzed using Prism software (GraphPad, San Diego, Calif.) to calculate IC50 values.

[9] = system: FIP1L1-PDGFRα fusion in EOL-1 cells; assay: EOL-1 Western blot, phospho-PDGFRα (Tyr754); assay type: cell-based; conditions: Homo sapiens, EOL1, 4 hours, read-out: IC50, inhibition of phosphorylation of FIP1L1-PDGFRα fusion in EOL-1 cells
Protocol: as §5

[10] = system: D842V mutant PDGFRα BaF3 cells; assay: BaF3 PDGFRα D842V cell proliferation assay (resazurin); assay type: cell-based; conditions: Mus musculus, 67 h + 5 h resazurin, read-out: IC50, inhibition of proliferation of D842V mutant PDGFRα BaF3 cells
Protocol: as §4, §6

[11] = target: T3, recombinant wild type PDGFRβ (Homo sapiens, UniProt P09619); assay: Biochemical assay for PDGFRB (coupled pyruvate kinase/lactate dehydrogenase); conditions: 0.5 mM ATP, 9 nM PDGFRB; read-out: IC50, inhibition of recombinant wild type PDGFRβ enzyme activity
T3 construct: purchased DeCode Biostructures, Bainbridge Island, Wash
Protocol: as §3

[12] = target: T4, recombinant wild type PDGFRα (Homo sapiens, UniProt P16234); assay: Biochemical assay for PDGFRα (coupled pyruvate kinase/lactate dehydrogenase); conditions: 0.5 mM ATP, 4.8 nM PDGFRA; read-out: IC50, inhibition of recombinant wild type PDGFRα enzyme activity
T4 construct: purchased DeCode Biostructures, Bainbridge Island, Wash
T4 sequence (P16234 with tags, fused parts or gaps): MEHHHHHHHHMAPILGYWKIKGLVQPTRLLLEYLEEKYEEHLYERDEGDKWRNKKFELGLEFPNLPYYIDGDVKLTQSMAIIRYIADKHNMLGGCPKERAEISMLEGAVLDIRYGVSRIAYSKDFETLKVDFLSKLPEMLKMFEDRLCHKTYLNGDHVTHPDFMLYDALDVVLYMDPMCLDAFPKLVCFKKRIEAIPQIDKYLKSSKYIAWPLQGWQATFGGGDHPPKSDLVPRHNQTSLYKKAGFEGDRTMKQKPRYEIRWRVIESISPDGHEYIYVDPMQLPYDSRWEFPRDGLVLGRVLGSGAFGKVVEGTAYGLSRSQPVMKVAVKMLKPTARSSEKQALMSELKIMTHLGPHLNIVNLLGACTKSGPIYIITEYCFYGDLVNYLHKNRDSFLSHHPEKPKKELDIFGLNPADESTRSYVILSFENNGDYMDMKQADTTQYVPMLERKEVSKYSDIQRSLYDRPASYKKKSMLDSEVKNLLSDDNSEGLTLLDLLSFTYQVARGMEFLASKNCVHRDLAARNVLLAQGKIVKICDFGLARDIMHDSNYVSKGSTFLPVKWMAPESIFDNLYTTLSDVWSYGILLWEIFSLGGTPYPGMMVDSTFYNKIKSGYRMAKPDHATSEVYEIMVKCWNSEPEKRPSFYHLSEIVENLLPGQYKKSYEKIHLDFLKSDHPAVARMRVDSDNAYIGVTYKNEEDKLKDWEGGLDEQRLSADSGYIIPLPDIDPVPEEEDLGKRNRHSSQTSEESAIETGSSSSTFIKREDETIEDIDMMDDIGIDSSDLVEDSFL
Protocol: Inhibition of PDGFRA was measured after adding serial diluted test compound (final assay concentration of 1% DMSO). A decrease in absorption at 340 nm was monitored continuously for 6 hours at 30° C. on a multi-mode microplate reader (BioTek, Winooski, Vt.). The reaction rate was calculated using the 1-2 h time frame. The reaction rate at each concentration of compound was converted to percent inhibition using controls (i.e. reaction with no test compound and reaction with a known inhibitor) and IC50 values were calculated by fitting a four-parameter sigmoidal curve to the data using Prism (GraphPad, San Diego, Calif.).

T3 sequence (P09619 with tags, fused parts or gaps N1019K): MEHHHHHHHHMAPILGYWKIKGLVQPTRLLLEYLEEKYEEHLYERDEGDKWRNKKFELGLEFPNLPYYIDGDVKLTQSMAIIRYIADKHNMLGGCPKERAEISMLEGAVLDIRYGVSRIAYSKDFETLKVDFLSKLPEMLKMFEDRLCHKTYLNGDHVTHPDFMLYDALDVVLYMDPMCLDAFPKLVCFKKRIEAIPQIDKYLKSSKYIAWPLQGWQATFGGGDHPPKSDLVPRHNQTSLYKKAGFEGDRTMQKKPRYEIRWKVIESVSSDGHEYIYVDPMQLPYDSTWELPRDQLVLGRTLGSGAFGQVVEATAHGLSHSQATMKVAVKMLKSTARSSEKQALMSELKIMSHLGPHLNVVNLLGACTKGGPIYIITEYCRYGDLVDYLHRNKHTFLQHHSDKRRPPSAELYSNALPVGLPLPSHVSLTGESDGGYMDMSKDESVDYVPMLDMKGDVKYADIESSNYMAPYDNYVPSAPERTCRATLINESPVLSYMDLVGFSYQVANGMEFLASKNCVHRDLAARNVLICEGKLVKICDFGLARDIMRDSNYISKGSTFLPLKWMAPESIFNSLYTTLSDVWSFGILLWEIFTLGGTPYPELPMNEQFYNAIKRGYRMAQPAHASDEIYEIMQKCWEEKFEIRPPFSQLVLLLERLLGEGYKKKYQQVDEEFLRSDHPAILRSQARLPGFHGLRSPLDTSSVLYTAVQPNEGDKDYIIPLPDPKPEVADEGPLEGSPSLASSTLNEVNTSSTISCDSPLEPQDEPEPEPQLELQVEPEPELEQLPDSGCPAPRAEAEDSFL
T2 sequence (P16234 24-1089 D842V): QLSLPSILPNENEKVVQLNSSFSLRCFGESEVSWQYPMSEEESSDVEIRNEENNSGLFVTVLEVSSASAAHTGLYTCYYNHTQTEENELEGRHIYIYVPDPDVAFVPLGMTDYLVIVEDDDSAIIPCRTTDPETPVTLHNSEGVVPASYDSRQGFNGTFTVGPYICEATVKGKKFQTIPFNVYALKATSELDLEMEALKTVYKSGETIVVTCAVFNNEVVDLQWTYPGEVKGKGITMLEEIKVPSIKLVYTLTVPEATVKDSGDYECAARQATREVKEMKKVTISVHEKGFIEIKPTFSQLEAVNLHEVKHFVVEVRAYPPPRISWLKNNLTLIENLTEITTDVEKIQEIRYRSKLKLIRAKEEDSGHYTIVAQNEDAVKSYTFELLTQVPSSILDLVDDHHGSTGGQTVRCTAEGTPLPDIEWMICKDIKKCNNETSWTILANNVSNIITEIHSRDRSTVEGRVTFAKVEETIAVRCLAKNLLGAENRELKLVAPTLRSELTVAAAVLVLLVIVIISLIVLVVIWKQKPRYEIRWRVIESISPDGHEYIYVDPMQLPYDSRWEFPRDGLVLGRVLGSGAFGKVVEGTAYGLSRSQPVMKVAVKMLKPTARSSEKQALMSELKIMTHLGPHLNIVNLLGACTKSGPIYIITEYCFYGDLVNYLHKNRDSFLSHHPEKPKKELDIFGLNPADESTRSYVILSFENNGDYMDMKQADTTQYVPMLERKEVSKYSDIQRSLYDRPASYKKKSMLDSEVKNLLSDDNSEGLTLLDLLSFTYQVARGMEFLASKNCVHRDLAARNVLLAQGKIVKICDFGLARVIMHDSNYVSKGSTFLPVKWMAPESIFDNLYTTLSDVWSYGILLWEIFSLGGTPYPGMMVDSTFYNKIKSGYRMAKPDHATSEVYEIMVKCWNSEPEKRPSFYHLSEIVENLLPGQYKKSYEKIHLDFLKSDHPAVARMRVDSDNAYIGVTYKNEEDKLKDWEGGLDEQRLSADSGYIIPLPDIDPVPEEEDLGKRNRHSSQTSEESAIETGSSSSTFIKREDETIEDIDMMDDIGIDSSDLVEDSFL
T1 sequence (P16234 with tags, fused parts or gaps D842V): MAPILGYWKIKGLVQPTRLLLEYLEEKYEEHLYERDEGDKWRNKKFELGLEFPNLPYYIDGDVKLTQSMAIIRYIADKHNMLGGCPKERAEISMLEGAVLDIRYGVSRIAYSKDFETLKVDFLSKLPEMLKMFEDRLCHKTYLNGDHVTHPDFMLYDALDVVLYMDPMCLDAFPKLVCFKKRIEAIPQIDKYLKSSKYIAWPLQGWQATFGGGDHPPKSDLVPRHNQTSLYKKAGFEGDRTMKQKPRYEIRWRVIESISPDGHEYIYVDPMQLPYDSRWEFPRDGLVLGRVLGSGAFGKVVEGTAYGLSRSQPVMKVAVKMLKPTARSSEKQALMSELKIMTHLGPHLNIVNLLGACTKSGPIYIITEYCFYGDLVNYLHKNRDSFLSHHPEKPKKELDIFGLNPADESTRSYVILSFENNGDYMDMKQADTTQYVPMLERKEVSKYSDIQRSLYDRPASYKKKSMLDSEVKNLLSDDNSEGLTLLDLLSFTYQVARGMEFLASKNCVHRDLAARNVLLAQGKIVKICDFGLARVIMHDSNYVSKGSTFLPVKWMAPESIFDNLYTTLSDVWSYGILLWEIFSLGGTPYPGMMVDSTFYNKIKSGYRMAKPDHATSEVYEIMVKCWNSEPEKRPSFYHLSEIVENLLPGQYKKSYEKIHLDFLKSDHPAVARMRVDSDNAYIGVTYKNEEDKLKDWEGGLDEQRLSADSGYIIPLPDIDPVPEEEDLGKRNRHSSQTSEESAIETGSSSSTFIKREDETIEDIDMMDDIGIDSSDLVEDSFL

Structure (SMILES): CCn1c(=O)c(-c2cc(NC(=O)Nc3ccccc3)c(F)cc2Br)cc2cnc(NC)cc21 [Compound A, 1-[4-bromo-5-[1-ethyl-7-(methylamino)-2-oxo-1,2-dihydro-1,6-naphthyridin-3-yl]-2-fluorophenyl]-3-phenylurea]
Clinical outcome ([1]; 30 mg BID oral, cycles of 28 days): progressed after 2 treatment cycles | Time on treatment with continued benefit ([1]; 100 mg BID oral, Cycle 11): > 40 weeks | Tumor assessment according to RECIST 1.1 ([1]; 100 mg BID oral, most recent assessment): Stable Disease | Tumor reduction ([1]; 150 mg QD oral): some tumor reduction observed | Time on treatment ([1]; 150 mg QD oral, Cycle 6): > 20 weeks | Tumor assessment per RECIST ([1]; 150 mg QD oral, Cycle 6): stable disease | Frequency of double positive CTCs (PDGFRα+/GFAP+) ([2]; cycle 7 (28 weeks)): 2.22 CTCs/mL | Frequency of double positive CTCs (PDGFRα+/GFAP+) ([2]; cycle 13 (52 weeks)): 1.11 CTCs/mL | Frequency of double positive CTCs (PDGFRα+/GFAP+) ([2]; cycle 17 (68 weeks)): 0.58 CTCs/mL | Cmax ([3]; oral Compound A 150 mg BID): 1500 ng/mL | Cmax ([3]; oral Compound A 150 mg QD): 861 ng/mL | Compound A AUC12h (mean) ([3]; oral Compound A 150 mg QD): 8,070 ng*h/mL | Tumor response according to the RANO criteria ([4]; PDGFRα 6× amplified, since assessment after Cycle 12 (48 weeks)): Partial Response | Time on study with continued benefit ([4]; PDGFRα amplified, cycle 19): > 17 months | PDGFRα D842V mutation allele frequency in plasma cfDNA ([5]; Cycle 3 Day 1 (8 weeks), not detected at baseline): 0.59% | PDGFRα D842V mutation allele frequency in plasma cfDNA ([5]; Cycle 5 Day 1 (16 weeks) and Cycle 7 Day 1 (24 weeks)): undetectable

IC50 [6]: 20 nM | IC50 [7]: 26 nM | IC50 [9]: < 0.1 nM | IC50 [10]: 42 nM | IC50 [11]: 5 nM | IC50 [12]: 6 nM
Structure (SMILES): CCn1c(=O)c(-c2cc(NC(=O)Nc3ccccc3)c(F)cc2Br)cc2cnc(N)cc21 [Compound B, 1-(5-(7-amino-1-ethyl-2-oxo-1,2-dihydro-1,6-naphthyridin-3-yl)-4-bromo-2-fluorophenyl)-3-phenylurea]
IC50 [8]: 0.018 nM

— patent US20220370424A1 (Deciphera Pharmaceuticals, LLC, priority 2017, published 2022)
